Laboratory results reported in patent US8192962B2, “Processes for detecting toxic substances” (Daikin Industries, Ltd., priority 2001, dated 2012).

System: Unknown protein yeast genes
Experiment: DNA chip mRNA expression in yeast, unknown protein yeast genes (Table 1)
Format: cell-based, Saccharomyces cerevisiae S288C
Method in brief: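 Cells were grown at 25° C. in YPD, treated at logarithmic phase for 2 h with a chemical at a concentration inhibiting growth but not causing death, and compared with untreated cultures. Labeled cDNA was hybridized to a DNA chip carrying all yeast genes, and the expression ratio was taken from scanner fluorescence.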

`O=[N+]([O-])c1cc[n+]([O-])c2ccccc12` [(5), 4-nitroquinolin-N-oxide] was tested, and the “The level of expressed mRNA in the presence of chemical substance/The level of expressed mRNA in the absence of chemical substance” value (yeast gene YAL053W, incubated two hours with chemical substance) was 0.8, the “The level of expressed mRNA in the presence of chemical substance/The level of expressed mRNA in the absence of chemical substance” value (yeast gene YAR023C) was 1.3 and the “The level of expressed mRNA in the presence of chemical substance/The level of expressed mRNA in the absence of chemical substance” value (yeast gene YBL048W) was 1.3. For the same molecule, the “The level of expressed mRNA in the presence of chemical substance/The level of expressed mRNA in the absence of chemical substance” value (yeast gene YBL107C) was 1.2, the “The level of expressed mRNA in the presence of chemical substance/The level of expressed mRNA in the absence of chemical substance” value (yeast gene YDL072C, incubated two hours with chemical substance) was 1.4 and the “The level of expressed mRNA in the presence of chemical substance/The level of expressed mRNA in the absence of chemical substance” value (yeast gene YDL086W) was 1.3. For the same molecule, the “The level of expressed mRNA in the presence of chemical substance/The level of expressed mRNA in the absence of chemical substance” value (yeast gene YDL129W) was 1.3, the “The level of expressed mRNA in the presence of chemical substance/The level of expressed mRNA in the absence of chemical substance” value (yeast gene YDL204W, incubated two hours with chemical substance) was 1.0 and the “The level of expressed mRNA in the presence of chemical substance/The level of expressed mRNA in the absence of chemical substance” value (yeast gene YDL222C, incubated two hours with chemical substance) was 1.0. The “The level of expressed mRNA in the presence of chemical substance/The level of expressed mRNA in the absence of chemical substance” value (yeast gene YDR330W, incubated two hours with chemical substance) was 1.2, the “The level of expressed mRNA in the presence of chemical substance/The level of expressed mRNA in the absence of chemical substance” value (yeast gene YDR359C) was 1.3 and the “The level of expressed mRNA in the presence of chemical substance/The level of expressed mRNA in the absence of chemical substance” value (yeast gene YDR411C, incubated two hours with chemical substance) was 1.6. The “The level of expressed mRNA in the presence of chemical substance/The level of expressed mRNA in the absence of chemical substance” value (yeast gene YDR511W, incubated two hours with chemical substance) was 1.0, the “The level of expressed mRNA in the presence of chemical substance/The level of expressed mRNA in the absence of chemical substance” value (yeast gene YDR533C) was 1.3 and the “The level of expressed mRNA in the presence of chemical substance/The level of expressed mRNA in the absence of chemical substance” value (yeast gene YDR545W, incubated two hours with chemical substance) was 1.4. For the same molecule, the “The level of expressed mRNA in the presence of chemical substance/The level of expressed mRNA in the absence of chemical substance” value (yeast gene YEL001C, incubated two hours with chemical substance) was 0.9, the “The level of expressed mRNA in the presence of chemical substance/The level of expressed mRNA in the absence of chemical substance” value (yeast gene YER004W, incubated two hours with chemical substance) was 1.5 and the “The level of expressed mRNA in the presence of chemical substance/The level of expressed mRNA in the absence of chemical substance” value (yeast gene YER035W, incubated two hours with chemical substance) was 1.5. The “The level of expressed mRNA in the presence of chemical substance/The level of expressed mRNA in the absence of chemical substance” value (yeast gene YER079W, incubated two hours with chemical substance) was 0.8, the “The level of expressed mRNA in the presence of chemical substance/The level of expressed mRNA in the absence of chemical substance” value (yeast gene YER106W, incubated two hours with chemical substance) was 1.6 and the “The level of expressed mRNA in the presence of chemical substance/The level of expressed mRNA in the absence of chemical substance” value (yeast gene YER121W) was 1.3. For the same molecule, the “The level of expressed mRNA in the presence of chemical substance/The level of expressed mRNA in the absence of chemical substance” value (yeast gene YER158C, incubated two hours with chemical substance) was 0.8, the “The level of expressed mRNA in the presence of chemical substance/The level of expressed mRNA in the absence of chemical substance” value (yeast gene YER163C, incubated two hours with chemical substance) was 0.8 and the “The level of expressed mRNA in the presence of chemical substance/The level of expressed mRNA in the absence of chemical substance” value (yeast gene YER175C, incubated two hours with chemical substance) was 0.9. The “The level of expressed mRNA in the presence of chemical substance/The level of expressed mRNA in the absence of chemical substance” value (yeast gene YER189W) was 1.3, the “The level of expressed mRNA in the presence of chemical substance/The level of expressed mRNA in the absence of chemical substance” value (yeast gene YFL006W, incubated two hours with chemical substance) was 1.4 and the “The level of expressed mRNA in the presence of chemical substance/The level of expressed mRNA in the absence of chemical substance” value (yeast gene YFL010C, incubated two hours with chemical substance) was 1.3. For the same molecule, the “The level of expressed mRNA in the presence of chemical substance/The level of expressed mRNA in the absence of chemical substance” value (yeast gene YFL024C) was 1.1, the “The level of expressed mRNA in the presence of chemical substance/The level of expressed mRNA in the absence of chemical substance” value (yeast gene YFL032W, incubated two hours with chemical substance) was 0.9 and the “The level of expressed mRNA in the presence of chemical substance/The level of expressed mRNA in the absence of chemical substance” value (yeast gene YGL037C, incubated two hours with chemical substance) was 0.9. The “The level of expressed mRNA in the presence of chemical substance/The level of expressed mRNA in the absence of chemical substance” value (yeast gene YGL047W, incubated two hours with chemical substance) was 1.3, the “The level of expressed mRNA in the presence of chemical substance/The level of expressed mRNA in the absence of chemical substance” value (yeast gene YGL053W, incubated two hours with chemical substance) was 2.0 and the “The level of expressed mRNA in the presence of chemical substance/The level of expressed mRNA in the absence of chemical substance” value (yeast gene YGL121C) was 0.9. The “The level of expressed mRNA in the presence of chemical substance/The level of expressed mRNA in the absence of chemical substance” value (yeast gene YGL199C, incubated two hours with chemical substance) was 0.7, the “The level of expressed mRNA in the presence of chemical substance/The level of expressed mRNA in the absence of chemical substance” value (yeast gene YGR038W) was 1.3 and the “The level of expressed mRNA in the presence of chemical substance/The level of expressed mRNA in the absence of chemical substance” value (yeast gene YGR101W, incubated two hours with chemical substance) was 1.2. For the same molecule, the “The level of expressed mRNA in the presence of chemical substance/The level of expressed mRNA in the absence of chemical substance” value (yeast gene YGR110W) was 0.9, the “The level of expressed mRNA in the presence of chemical substance/The level of expressed mRNA in the absence of chemical substance” value (yeast gene YGR130C, incubated two hours with chemical substance) was 1.4 and the “The level of expressed mRNA in the presence of chemical substance/The level of expressed mRNA in the absence of chemical substance” value (yeast gene YGR142W) was 1.3. The “The level of expressed mRNA in the presence of chemical substance/The level of expressed mRNA in the absence of chemical substance” value (yeast gene YGR154C, incubated two hours with chemical substance) was 1.2, the “The level of expressed mRNA in the presence of chemical substance/The level of expressed mRNA in the absence of chemical substance” value (yeast gene YGR221C, incubated two hours with chemical substance) was 0.9 and the “The level of expressed mRNA in the presence of chemical substance/The level of expressed mRNA in the absence of chemical substance” value (yeast gene YHR138C, incubated two hours with chemical substance) was 1.5. For the same molecule, the “The level of expressed mRNA in the presence of chemical substance/The level of expressed mRNA in the absence of chemical substance” value (yeast gene YHR199C, incubated two hours with chemical substance) was 1.2, the “The level of expressed mRNA in the presence of chemical substance/The level of expressed mRNA in the absence of chemical substance” value (yeast gene YIL023C, incubated two hours with chemical substance) was 1.3 and the “The level of expressed mRNA in the presence of chemical substance/The level of expressed mRNA in the absence of chemical substance” value (yeast gene YIL041W, incubated two hours with chemical substance) was 0.5. For the same molecule, the “The level of expressed mRNA in the presence of chemical substance/The level of expressed mRNA in the absence of chemical substance” value (yeast gene YIL057C) was 1.3, the “The level of expressed mRNA in the presence of chemical substance/The level of expressed mRNA in the absence of chemical substance” value (yeast gene YIL087C, incubated two hours with chemical substance) was 1.4 and the “The level of expressed mRNA in the presence of chemical substance/The level of expressed mRNA in the absence of chemical substance” value (yeast gene YIR041W) was 1.3. For the same molecule, the “The level of expressed mRNA in the presence of chemical substance/The level of expressed mRNA in the absence of chemical substance” value (yeast gene YJL057C, incubated two hours with chemical substance) was 1.5, the “The level of expressed mRNA in the presence of chemical substance/The level of expressed mRNA in the absence of chemical substance” value (yeast gene YJL066C, incubated two hours with chemical substance) was 0.8 and the “The level of expressed mRNA in the presence of chemical substance/The level of expressed mRNA in the absence of chemical substance” value (yeast gene YJL082W, incubated two hours with chemical substance) was 1.7. For the same molecule, the “The level of expressed mRNA in the presence of chemical substance/The level of expressed mRNA in the absence of chemical substance” value (yeast gene YJL100W) was 1.3, the “The level of expressed mRNA in the presence of chemical substance/The level of expressed mRNA in the absence of chemical substance” value (yeast gene YJL151C, incubated two hours with chemical substance) was 1.3 and the “The level of expressed mRNA in the presence of chemical substance/The level of expressed mRNA in the absence of chemical substance” value (yeast gene YJL152W, incubated two hours with chemical substance) was 1.6. For the same molecule, the “The level of expressed mRNA in the presence of chemical substance/The level of expressed mRNA in the absence of chemical substance” value (yeast gene YJL161W, incubated two hours with chemical substance) was 1.1, the “The level of expressed mRNA in the presence of chemical substance/The level of expressed mRNA in the absence of chemical substance” value (yeast gene YJL171C, incubated two hours with chemical substance) was 1.0 and the “The level of expressed mRNA in the presence of chemical substance/The level of expressed mRNA in the absence of chemical substance” value (yeast gene YJR008W, incubated two hours with chemical substance) was 1.4. The “The level of expressed mRNA in the presence of chemical substance/The level of expressed mRNA in the absence of chemical substance” value (yeast gene YJR054W, incubated two hours with chemical substance) was 1.0.
